Assay results: ChEMBL document CHEMBL5465560, “Selectivity Literature for EUbOPEN Chemogenomic Library” (2024)

Key:
[1] = biological target: Cyclin-dependent kinase 16 (Homo sapiens) (UniProt Q00536); test: Selectivity interaction (KinomeScan (DiscoverX)) EUB0000092b CDK16; conditions: at 10 µM
[2] = biological target: Wee1-like protein kinase (Homo sapiens) (UniProt P30291); test: Selectivity interaction (ProQinase) EUB0000171b WEE1
[3] = biological target: Bromodomain adjacent to zinc finger domain protein 2A (Homo sapiens, UniProt Q9UIF9)
[4] = biological target: T1, Bromodomain and PHD finger-containing protein 3 (Homo sapiens) (UniProt Q9ULD4); test: Selectivity interaction (Human bromodomain panel (DSF assay)) EUB0000233b BRPF3
T1 sequence (whole entry): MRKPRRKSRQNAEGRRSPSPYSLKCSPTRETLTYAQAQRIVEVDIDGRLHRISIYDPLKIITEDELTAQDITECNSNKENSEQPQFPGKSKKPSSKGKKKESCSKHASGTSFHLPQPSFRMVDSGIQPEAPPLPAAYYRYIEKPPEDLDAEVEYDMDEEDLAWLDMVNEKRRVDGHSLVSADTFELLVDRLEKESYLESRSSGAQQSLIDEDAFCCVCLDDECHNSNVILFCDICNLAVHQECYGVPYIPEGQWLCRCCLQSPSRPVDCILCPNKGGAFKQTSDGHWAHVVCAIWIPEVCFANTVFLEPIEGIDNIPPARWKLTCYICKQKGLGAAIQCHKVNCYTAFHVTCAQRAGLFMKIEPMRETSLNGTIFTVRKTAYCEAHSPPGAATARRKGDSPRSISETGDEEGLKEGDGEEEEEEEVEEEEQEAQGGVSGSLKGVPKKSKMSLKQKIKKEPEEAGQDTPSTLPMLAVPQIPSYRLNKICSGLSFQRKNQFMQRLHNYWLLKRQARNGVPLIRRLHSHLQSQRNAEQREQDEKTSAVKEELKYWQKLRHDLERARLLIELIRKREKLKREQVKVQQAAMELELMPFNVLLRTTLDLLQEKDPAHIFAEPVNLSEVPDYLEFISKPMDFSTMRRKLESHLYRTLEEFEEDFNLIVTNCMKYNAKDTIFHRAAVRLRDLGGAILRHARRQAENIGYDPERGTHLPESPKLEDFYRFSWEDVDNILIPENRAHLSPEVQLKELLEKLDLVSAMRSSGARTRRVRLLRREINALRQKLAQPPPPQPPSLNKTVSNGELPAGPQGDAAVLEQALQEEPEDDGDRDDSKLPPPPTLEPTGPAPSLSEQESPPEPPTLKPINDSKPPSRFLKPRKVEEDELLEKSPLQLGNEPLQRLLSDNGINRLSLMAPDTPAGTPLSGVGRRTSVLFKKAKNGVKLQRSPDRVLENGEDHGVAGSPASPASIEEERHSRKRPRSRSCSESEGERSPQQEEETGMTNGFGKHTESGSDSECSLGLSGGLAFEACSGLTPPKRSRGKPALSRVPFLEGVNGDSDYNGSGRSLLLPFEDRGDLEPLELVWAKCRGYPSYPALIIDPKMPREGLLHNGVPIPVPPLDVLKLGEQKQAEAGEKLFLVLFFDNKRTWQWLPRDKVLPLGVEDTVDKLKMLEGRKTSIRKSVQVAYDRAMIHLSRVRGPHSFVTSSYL

[5] = biological target: Angiopoietin-1 receptor (Homo sapiens) (UniProt Q02763); test: Selectivity interaction (Millipore kinase profiler) EUB0000124b TEK; conditions: at 10 µM
Chain of Angiopoietin-1 receptor (Homo sapiens) (Q02763 whole entry): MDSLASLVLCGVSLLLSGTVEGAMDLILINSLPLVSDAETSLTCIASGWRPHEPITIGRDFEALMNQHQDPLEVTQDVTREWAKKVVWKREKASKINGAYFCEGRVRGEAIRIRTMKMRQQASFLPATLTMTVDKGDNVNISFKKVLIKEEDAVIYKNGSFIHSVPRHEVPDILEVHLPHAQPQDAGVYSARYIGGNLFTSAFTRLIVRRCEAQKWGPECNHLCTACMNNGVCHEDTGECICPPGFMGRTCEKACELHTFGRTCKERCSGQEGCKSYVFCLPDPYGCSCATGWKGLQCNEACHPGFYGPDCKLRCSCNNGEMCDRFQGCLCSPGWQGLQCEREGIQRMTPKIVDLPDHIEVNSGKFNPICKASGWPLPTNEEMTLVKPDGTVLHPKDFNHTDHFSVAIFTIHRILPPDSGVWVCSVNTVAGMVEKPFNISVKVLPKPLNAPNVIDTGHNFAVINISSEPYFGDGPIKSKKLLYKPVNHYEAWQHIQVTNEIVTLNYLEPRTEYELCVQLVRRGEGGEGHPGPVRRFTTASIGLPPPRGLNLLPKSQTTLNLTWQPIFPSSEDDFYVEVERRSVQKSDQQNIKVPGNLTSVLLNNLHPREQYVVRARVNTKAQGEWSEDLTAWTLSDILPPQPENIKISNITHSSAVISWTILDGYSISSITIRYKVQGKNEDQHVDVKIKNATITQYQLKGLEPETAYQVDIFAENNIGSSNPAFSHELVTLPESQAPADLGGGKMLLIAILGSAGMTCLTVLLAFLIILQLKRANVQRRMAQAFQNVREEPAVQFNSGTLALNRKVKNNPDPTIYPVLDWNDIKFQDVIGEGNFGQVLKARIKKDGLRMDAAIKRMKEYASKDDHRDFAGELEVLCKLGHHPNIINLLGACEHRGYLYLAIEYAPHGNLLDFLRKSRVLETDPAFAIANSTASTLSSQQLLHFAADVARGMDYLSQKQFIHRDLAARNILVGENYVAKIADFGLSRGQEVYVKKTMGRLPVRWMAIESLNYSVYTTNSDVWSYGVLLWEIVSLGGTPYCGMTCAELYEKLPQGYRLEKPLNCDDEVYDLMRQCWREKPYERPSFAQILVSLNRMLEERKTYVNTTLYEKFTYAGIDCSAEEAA

[6] = biological target: Ribosomal protein S6 kinase alpha-1 (Homo sapiens, UniProt Q15418); test: Selectivity interaction (ActivX KiNativ screen (kinase selectivity in THP-1 cell lysates)) EUB0000639a RPS6KA1; type: subcellular; conditions: lysate, at 1 µM
Chain of Ribosomal protein S6 kinase alpha-1 (Q15418 whole entry): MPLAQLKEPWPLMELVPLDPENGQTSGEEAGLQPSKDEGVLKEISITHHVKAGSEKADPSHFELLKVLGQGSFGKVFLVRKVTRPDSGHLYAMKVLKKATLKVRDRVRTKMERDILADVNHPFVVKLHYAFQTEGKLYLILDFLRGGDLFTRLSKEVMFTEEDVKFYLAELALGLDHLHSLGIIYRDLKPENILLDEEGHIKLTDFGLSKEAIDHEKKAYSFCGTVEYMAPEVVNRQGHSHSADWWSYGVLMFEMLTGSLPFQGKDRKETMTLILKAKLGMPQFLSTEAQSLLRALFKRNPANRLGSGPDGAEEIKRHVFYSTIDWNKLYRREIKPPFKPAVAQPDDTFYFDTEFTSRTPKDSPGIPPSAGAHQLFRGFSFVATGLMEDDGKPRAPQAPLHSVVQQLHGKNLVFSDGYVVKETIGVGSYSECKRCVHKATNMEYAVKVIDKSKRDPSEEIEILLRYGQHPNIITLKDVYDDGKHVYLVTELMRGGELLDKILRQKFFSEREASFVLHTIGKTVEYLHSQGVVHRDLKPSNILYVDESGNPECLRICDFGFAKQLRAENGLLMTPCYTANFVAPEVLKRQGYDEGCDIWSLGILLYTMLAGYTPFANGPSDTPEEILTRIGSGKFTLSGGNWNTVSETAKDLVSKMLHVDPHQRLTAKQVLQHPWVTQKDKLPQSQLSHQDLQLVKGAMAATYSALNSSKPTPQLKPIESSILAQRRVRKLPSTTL

[7] = biological target: Hepatocyte growth factor-like protein (Homo sapiens) (UniProt P26927); test: Selectivity interaction (KinomeScan (DiscoverX)) EUB0000607a MST1; conditions: at 10 µM
[8] = biological target: Serine/threonine-protein kinase PAK 6 (Homo sapiens) (UniProt Q9NQU5); test: Selectivity interaction (SelectScreen profiling (Invitrogen)) EUB0000607a PAK6; conditions: at 2 µM
[9] = biological target: T2, Ephrin type-A receptor 1 (Homo sapiens) (UniProt P21709); test: Selectivity interaction (KinomeScan (DiscoverX)) EUB0001049a EPHA1; conditions: at 1 µM
T2 sequence (whole entry): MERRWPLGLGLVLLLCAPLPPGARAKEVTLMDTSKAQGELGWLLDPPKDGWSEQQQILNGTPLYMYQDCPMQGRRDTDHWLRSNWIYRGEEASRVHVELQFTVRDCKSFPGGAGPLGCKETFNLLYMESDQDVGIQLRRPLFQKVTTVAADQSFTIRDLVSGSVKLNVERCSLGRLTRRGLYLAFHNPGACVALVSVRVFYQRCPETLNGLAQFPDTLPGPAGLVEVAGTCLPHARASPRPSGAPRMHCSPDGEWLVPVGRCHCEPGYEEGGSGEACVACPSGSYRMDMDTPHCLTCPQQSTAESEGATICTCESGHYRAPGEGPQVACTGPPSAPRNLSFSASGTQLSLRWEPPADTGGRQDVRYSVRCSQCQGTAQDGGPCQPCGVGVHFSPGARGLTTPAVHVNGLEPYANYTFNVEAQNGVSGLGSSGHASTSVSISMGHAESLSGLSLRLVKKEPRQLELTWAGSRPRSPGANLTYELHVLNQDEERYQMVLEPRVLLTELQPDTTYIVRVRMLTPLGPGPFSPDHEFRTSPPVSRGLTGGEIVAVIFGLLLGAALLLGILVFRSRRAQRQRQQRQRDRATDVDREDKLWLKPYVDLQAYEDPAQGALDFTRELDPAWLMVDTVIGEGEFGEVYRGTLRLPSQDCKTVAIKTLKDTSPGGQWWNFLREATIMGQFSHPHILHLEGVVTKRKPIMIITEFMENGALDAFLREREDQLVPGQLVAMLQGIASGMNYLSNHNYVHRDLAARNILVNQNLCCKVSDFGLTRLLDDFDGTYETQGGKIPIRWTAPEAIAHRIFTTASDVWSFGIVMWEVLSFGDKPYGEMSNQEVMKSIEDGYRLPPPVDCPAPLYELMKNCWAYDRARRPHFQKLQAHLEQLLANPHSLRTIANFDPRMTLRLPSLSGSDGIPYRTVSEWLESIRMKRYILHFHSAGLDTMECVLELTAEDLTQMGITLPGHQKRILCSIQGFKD

[10] = biological target: 1-phosphatidylinositol 3-phosphate 5-kinase (Homo sapiens) (UniProt Q9Y2I7); test: Selectivity interaction (KinomeScan (DiscoverX)) EUB0000695a PIKFYVE; conditions: at 100 nM
Chain of 1-phosphatidylinositol 3-phosphate 5-kinase (Homo sapiens) (Q9Y2I7 whole entry): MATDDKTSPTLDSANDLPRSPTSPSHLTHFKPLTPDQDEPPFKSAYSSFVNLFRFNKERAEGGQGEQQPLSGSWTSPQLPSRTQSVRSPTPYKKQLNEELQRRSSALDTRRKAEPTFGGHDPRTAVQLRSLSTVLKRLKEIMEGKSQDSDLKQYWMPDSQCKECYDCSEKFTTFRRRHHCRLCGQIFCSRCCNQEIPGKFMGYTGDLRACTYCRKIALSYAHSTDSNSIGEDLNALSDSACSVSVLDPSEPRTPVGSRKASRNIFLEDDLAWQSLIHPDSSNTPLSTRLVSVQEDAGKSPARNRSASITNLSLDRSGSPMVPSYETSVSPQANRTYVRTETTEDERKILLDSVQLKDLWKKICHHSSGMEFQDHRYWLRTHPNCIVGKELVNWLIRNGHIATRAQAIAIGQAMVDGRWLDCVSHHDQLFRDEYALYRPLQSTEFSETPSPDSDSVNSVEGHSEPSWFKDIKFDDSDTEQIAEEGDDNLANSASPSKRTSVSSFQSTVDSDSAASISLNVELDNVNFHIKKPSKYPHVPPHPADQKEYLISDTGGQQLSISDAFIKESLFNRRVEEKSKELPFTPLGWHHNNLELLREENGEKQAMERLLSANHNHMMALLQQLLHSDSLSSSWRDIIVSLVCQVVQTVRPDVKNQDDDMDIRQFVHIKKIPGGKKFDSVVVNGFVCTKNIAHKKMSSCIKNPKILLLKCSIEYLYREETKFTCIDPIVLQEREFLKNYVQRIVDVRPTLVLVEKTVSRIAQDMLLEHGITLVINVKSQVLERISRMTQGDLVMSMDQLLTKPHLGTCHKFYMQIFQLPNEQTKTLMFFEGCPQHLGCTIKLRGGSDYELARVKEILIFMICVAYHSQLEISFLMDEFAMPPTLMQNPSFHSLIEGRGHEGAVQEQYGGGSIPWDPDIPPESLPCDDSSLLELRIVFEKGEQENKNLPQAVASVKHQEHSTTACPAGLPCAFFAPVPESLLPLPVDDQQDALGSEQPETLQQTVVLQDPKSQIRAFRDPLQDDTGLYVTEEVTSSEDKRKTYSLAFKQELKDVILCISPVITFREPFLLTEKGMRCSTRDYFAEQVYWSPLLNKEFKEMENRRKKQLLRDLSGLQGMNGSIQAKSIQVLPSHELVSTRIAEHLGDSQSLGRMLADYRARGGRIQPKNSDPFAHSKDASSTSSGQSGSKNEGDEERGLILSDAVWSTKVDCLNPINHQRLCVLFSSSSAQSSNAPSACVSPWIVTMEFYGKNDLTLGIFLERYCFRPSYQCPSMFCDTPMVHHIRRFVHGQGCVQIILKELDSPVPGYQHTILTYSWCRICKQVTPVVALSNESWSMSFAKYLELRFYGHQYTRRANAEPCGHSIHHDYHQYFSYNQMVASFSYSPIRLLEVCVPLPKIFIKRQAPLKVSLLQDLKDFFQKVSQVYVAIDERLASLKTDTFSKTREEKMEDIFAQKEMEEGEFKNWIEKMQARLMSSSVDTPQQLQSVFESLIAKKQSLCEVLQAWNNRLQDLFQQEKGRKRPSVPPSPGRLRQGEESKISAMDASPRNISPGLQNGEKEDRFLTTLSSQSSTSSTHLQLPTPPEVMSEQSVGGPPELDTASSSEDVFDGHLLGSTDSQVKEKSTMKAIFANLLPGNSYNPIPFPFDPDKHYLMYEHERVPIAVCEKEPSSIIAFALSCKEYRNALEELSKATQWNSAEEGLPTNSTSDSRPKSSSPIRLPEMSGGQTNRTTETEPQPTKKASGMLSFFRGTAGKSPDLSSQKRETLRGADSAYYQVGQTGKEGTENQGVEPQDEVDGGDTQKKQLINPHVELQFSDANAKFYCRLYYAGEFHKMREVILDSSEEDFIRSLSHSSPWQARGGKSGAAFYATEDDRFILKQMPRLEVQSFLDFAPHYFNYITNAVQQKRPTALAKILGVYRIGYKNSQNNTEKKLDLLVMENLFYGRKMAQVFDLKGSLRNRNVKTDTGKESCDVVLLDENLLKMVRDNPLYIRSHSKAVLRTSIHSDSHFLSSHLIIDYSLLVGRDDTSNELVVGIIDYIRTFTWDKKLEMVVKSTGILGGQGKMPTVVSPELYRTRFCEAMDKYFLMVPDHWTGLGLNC

[11] = biological target: Vascular endothelial growth factor receptor 2 (Homo sapiens, UniProt P35968); test: Selectivity interaction (Ambit KINOMEscan and KiNATiv profiling in Jurkat cells) EUB0000090b KDR; type: cell-based; conditions: at 1 µM

Chain of Wee1-like protein kinase (Homo sapiens) (P30291 whole entry, looked up, the tested form may be a part): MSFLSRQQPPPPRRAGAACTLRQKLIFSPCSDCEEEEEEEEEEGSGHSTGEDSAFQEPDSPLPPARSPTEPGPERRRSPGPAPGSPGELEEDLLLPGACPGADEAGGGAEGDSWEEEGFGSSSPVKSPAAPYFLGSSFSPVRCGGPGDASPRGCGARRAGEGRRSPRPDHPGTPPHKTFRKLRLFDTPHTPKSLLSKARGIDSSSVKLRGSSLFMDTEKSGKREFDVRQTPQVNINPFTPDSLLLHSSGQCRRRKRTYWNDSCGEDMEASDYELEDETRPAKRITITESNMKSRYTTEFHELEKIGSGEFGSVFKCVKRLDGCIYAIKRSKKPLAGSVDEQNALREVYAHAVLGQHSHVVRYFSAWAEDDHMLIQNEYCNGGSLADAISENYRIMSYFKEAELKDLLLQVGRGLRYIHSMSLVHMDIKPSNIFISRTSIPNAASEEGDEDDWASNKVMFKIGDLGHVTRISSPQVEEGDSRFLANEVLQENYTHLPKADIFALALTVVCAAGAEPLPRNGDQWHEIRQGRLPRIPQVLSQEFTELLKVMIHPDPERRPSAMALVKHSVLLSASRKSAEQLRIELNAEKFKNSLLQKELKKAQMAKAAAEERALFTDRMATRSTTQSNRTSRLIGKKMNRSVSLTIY
Chain of Cyclin-dependent kinase 16 (Homo sapiens) (Q00536 whole entry): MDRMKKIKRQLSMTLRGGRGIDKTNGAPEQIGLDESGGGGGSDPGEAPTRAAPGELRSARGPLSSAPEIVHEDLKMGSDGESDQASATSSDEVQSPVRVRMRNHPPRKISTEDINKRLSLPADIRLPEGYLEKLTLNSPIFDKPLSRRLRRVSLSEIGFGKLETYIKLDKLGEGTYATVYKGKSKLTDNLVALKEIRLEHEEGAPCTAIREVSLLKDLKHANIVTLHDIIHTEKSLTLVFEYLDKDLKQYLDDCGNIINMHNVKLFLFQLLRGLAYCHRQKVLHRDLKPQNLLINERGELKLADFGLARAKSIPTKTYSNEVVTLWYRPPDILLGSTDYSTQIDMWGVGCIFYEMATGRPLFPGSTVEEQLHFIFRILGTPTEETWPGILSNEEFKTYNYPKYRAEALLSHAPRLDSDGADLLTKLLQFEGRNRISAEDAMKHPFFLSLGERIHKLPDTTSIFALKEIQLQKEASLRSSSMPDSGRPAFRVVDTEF

Question: How did the % of control [1] turn out when `CCC(=O)N1CCN(c2ccc(-n3c(=O)ccc4cnc5ccc(-c6cnc7ccccc7c6)cc5c43)cc2C(F)(F)F)CC1` was run?
Answer: 91%

Question: Which % of control ([2]; at 1 µM) does the source give for `C=CC(=O)Nc1cccc(C(=O)Nc2ccc(Nc3cc(-c4[nH]c(SC)nc4C)ccn3)cc2)c1` here?
Answer: 73%

Question: What about the % of control ([2]; at 5 µM) of the same compound?
Answer: 79%

Question: What does the source list for `CN(C)CCCOc1ccc(-c2cc(NCCCn3cccn3)nc(S(C)(=O)=O)n2)cc1`?
Answer: dTM [3]: < 2 K; dTM [4]: < 2 K

Question: With `CC(=O)Nc1cccc(-n2c(=O)n(C3CC3)c(=O)c3c(Nc4ccc(I)cc4F)n(C)c(=O)c(C)c32)c1` as the compound, how does the % of control [5] read?
Answer: 103%

Question: `CC[C@@H]1[C@H](F)C(=O)N[C@@H]1COc1nccc2cc(C(N)=O)c(OC)cc12` [ZIMLOVISERTIB] was tested. Which % of inhibition [6] did it give?
Answer: 5.7%

Question: With `CNC(=O)Nc1ccc(-c2nc(N3CC4CCC(C3)O4)c3cnn(C4CCC5(CC4)OCCO5)c3n2)cc1` as the compound, how does the % of control [7] read?
Answer: 100%

Question: What about the % of inhibition [8] of the same compound?
Answer: 11%

Question: `COc1cc(Nc2nc(C)cc(-c3cnn4nc(OC)ccc34)n2)cc(C(F)(F)F)c1` was tested. Which % of control [9] did it give?
Answer: 93%

Question: For `Cc1cc(F)c(C(=O)Nc2cccc(-c3nncn3C(C)C)n2)cc1-n1cnc(C2CC2)c1`, which % of control [10] is on record?
Answer: 98%

Question: With `CN(C)C/C=C/C(=O)Nc1ccc(C(=O)N2CCCC(Nc3ncc(Cl)c(-c4c[nH]c5ccccc45)n3)C2)cc1` (configuration not stated) as the compound, how does the % of control [11] read?
Answer: 86%
